The values below come from paper PMC3367201 (Nucleic Acids Research, 2012).

The target in this experiment is Hp ND-AspRS (non-discriminating aspartyl-tRNA synthetase) (Helicobacter pylori, UniProt P56459). Description: inhibition of tRNA aminoacylation with […] L-Asp. The class given is biochemical.
Chain of Hp ND-AspRS (non-discriminating aspartyl-tRNA synthetase) (P56459 whole entry): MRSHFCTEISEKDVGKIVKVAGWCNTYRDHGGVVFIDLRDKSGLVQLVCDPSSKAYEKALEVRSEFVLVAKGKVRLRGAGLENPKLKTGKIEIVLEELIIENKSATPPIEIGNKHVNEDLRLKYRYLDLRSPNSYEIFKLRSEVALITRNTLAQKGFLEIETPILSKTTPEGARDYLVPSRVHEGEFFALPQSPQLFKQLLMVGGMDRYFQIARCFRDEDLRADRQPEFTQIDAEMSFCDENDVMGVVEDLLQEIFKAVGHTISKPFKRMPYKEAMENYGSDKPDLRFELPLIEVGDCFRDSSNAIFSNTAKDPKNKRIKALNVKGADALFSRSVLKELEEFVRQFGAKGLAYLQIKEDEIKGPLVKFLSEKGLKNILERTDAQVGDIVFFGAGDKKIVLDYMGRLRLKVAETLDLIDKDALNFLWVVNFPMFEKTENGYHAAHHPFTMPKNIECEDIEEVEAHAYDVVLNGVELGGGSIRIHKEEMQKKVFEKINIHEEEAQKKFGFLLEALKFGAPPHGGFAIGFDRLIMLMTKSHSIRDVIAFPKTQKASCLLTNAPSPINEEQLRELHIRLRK

Consider `Nc1ncnc2c1ncn2[C@@H]1O[C@H](COP(=O)(O)OC[C@@H](N)CC(=O)O)[C@@H](O)[C@H]1O` [Asp-ol-AMP], for which the Ki stood at 8 µM.

A word on the Ki: it is a measure of affinity in units of concentration, obtained from inhibition or displacement. A low value points to higher affinity.
